In brackets after ≈: the same amount, converted by molar mass.
How the values were obtained:
Escherichia coli = assay: Antimicrobial activity against Escherichia coli ATCC 25922 by broth macrodilution method; format: functional
Staphylococcus aureus = assay: Antimicrobial activity against Staphylococcus aureus ATCC 29213 by broth macrodilution method; format: functional
[1] = system: Mycobacterium tuberculosis; assay: Antimicrobial activity against Mycobacterium tuberculosis Erdman injected into gamma interferon gene knockout C57BL/6 mouse assessed as bacterial load in spleen of mouse at 300 mg/kg measured 9 days post drug treatment; format: functional
[2] = system: Mycobacterium tuberculosis; assay: Antimicrobial activity against Mycobacterium tuberculosis H37Rv by alamar blue assay; format: functional
[3] = system: Mycobacterium tuberculosis; assay: Antimicrobial activity against Mycobacterium tuberculosis Erdman injected into gamma interferon gene knockout C57BL/6 mouse assessed as bacterial load in spleen of mouse at 100 mg/kg measured 9 days post drug treatment; format: functional
[4] = Oral bioavailability in mouse at 300 mg/kg, po measured after 30 mins; format: ADME, organism-based; details: in vivo, read-out: Drug uptake
[5] = Oral bioavailability in mouse at 300 mg/kg, po measured after 2 hrs; format: ADME, organism-based; details: in vivo, read-out: Drug uptake
[6] = system: Mycobacterium tuberculosis; assay: Antimicrobial activity against Mycobacterium tuberculosis Erdman injected into gamma interferon gene knockout C57BL/6 mouse assessed as bacterial load in lung of mouse at 300 mg/kg measured 9 days post drug treatment; format: functional
[7] = system: Mycobacterium tuberculosis; assay: Antimicrobial activity against Mycobacterium tuberculosis H37Rv by macrodilution method; format: functional
[8] = system: Mycobacterium tuberculosis; assay: Antimicrobial activity against Mycobacterium tuberculosis H37Rv at assessed as growth inhibition at […] following 24 days oxygen depletion by Wayne method relative to control; format: functional; set-up: scale not given: the % may be the effect or the level left
Pseudomonas aeruginosa = assay: Antimicrobial activity against Pseudomonas aeruginosa ATCC 27853 by broth macrodilution method; format: functional
[9] = system: Mycobacterium tuberculosis; assay: Antimicrobial activity against Mycobacterium tuberculosis Erdman injected into gamma interferon gene knockout C57BL/6 mouse assessed as bacterial load in lung of mouse at 100 mg/kg measured 9 days post drug treatment; format: functional
[10] = system: Mycobacterium tuberculosis; assay: Antimicrobial activity against Mycobacterium tuberculosis Erdman injected into gamma interferon gene knockout C57BL/6 mouse assessed as bacterial load in lung of mouse at 25 mg/kg measured 9 days post drug treatment; format: functional
[11] = system: Mycobacterium tuberculosis; assay: Antimicrobial activity against Mycobacterium tuberculosis Erdman injected into gamma interferon gene knockout C57BL/6 mouse assessed as bacterial load in spleen of mouse at 25 mg/kg measured 9 days post drug treatment; format: functional
[12] = Oral bioavailability in mouse at 25 mg/kg, po measured after 30 mins; format: ADME, organism-based; details: in vivo, read-out: Drug uptake
[13] = Oral bioavailability in mouse at 25 mg/kg, po measured after 2 hrs; format: ADME, organism-based; details: in vivo, read-out: Drug uptake
[14] = Mycobacterium tuberculosis, H37Rv, read-out: MIC

SMILES: Cc1c(N2CC3=CCCN[C@H]3C2)c(F)cn2c(=O)c(C(=O)O)cc(C3CC3)c12
- MIC (Escherichia coli): < 0.015 µg/mL
- MIC (Staphylococcus aureus): < 0.015 µg/mL
- log10cfu [1]: 4.91
- MIC [2, 14]: < 0.025 µg/mL
- log10cfu [3]: 5.92
- concentration at 0.5 h [4]: > 13100 ng/mL
- concentration at 2 h [5]: 1640 ng/mL
- log10cfu [6]: 6.13
- MIC [7]: 0.041 µg/mL (≈ 0.107 µM)
- Activity [8]: 1.7%
- MIC (Pseudomonas aeruginosa): < 0.015 µg/mL
- log10cfu [9]: 7.25

SMILES: O=C(O)c1cn(C2CC2)c2cc(N3CCNCC3)c(F)cc2c1=O [CIPROFLOXACIN]
- Activity [8]: 83%

SMILES: COc1c(N2CCNC(C)C2)c(F)cc2c(=O)c(C(=O)O)cn(C3CC3)c12 (configuration not stated) [GATIFLOXACIN]
- Activity [8]: 41%

SMILES: NNC(=O)c1ccncc1 [ISONIAZID]
- log10cfu [10]: 5.8
- log10cfu [11]: 3.14
- MIC [2]: 0.041 µg/mL (≈ 0.299 µM)
- MIC [2, 14]: 0.048 µg/mL (≈ 0.35 µM)
- Activity [8]: 70%
- concentration at 0.5 h [12]: > 13100 ng/mL
- concentration at 2 h [13]: 1640 ng/mL

SMILES: Cc1ncc([N+](=O)[O-])n1CCO [METRONIDAZOLE]
- Activity [8]: 36%

SMILES: COc1c(N2C[C@@H]3CCCN[C@@H]3C2)c(F)cc2c(=O)c(C(=O)O)cn(C3CC3)c12 [MOXIFLOXACIN]
- log10cfu [1]: 2.43
- MIC [2]: 0.1 µg/mL (≈ 0.249 µM)
- MIC [2, 14]: 0.12 µg/mL (≈ 0.299 µM)
- concentration at 0.5 h [4]: 19600 ng/mL
- concentration at 2 h [5]: 9600 ng/mL
- log10cfu [6]: 2.37
- Activity [8]: 2.5%

SMILES: CO[C@H]1/C=C/O[C@@]2(C)Oc3c(C)c(O)c4c(O)c(c(/C=N/N5CCN(C)CC5)c(O)c4c3C2=O)NC(=O)/C(C)=C\C=C\[C@H](C)[C@H](O)[C@@H](C)[C@@H](O)[C@@H](C)[C@H](OC(C)=O)[C@@H]1C [RIFAMPIN]
- Activity [8]: 5.6%

SMILES: CO[C@H]1/C=C/O[C@@]2(C)Oc3c(C)c(O)c4c(O)c(c(/C=N/N5CCN(C6CCCC6)CC5)c(O)c4c3C2=O)NC(=O)/C(C)=C\C=C\[C@H](C)[C@H](O)[C@@H](C)[C@@H](O)[C@@H](C)[C@H](OC(C)=O)[C@@H]1C [RIFAPENTINE]
- Activity [8]: 2.5%

SMILES: CN[C@@H]1[C@H](O[C@H]2[C@H](O[C@H]3[C@H](O)[C@@H](O)[C@H](N=C(N)N)[C@@H](O)[C@@H]3N=C(N)N)O[C@@H](C)[C@]2(O)C=O)O[C@@H](CO)[C@H](O)[C@H]1O [STREPTOMYCIN]
- Activity [8]: 4.2%

From ChEMBL document CHEMBL1255311, “Evaluation of a 2-pyridone, KRQ-10018, against Mycobacterium tuberculosis in vitro and in vivo” (Antimicrob Agents Chemother, 2008)
